Results: patent US7435721B2, “Transport peptides such as C-terminal Erns peptide and analogues thereof” (Pepscan Systems B.V., priority 2000, dated 2008)
No end group written: not given here. *: point of attachment. Biotin = O=C1N[C@H]2[C@H](CS[C@H]2CCCCC(=O)*)N1

The substances below were run on live cells in suspension or subconfluent monolayers. Conditions: not given.
Assay type: cell-based

Biotin-KRIPNKKPGKKTTTKPTKK-NH2 [MDP-19] and “Biotin-KRIPNKKPGKKTTTKPTKKPTIK-NH2 [MDP-08]” are the same in “Concentration (translocation activity of transport peptides)” value: 0.3 µM for the first, 0.3 µM for the second.

“Biotin-KRIPNKKPGKKTTTKPTKKPTIKTTKKDLK-NH2 [MDN-13]” and “Biotin-KRIPNKKPGKKTTTKPTKKPTIKTTKKDLKPQTTKPK-NH2 [MDN-12]” are the same in “Concentration (translocation activity of transport peptides)” value: 1.0 µM for the first, 1.0 µM for the second.

Going from Biotin-KRIPNKKPKK [MDS-36] to Biotin-KRPAAIKKAGQAKKKK-NH2 [Bipartite], the “Concentration (translocation activity of transport peptides)” value rises from 0.03 µM to 0.1 µM (3.3-fold).

First: Biotin-KSICKTIPSNKPKKK-NH2 [MDP-21]
Second: Biotin-KTIPSNKPKKK-NH2 [MDS-35]
The “Concentration (translocation activity of transport peptides)” value of the first is 10-fold higher: 1.0 µM for the first, 0.1 µM for the second.

Going from “Biotin-NRTRRNRRRVR-NH2 [Flockhouse virus peptide]” to Biotin-PKKKRKV-NH2, the “Concentration (translocation activity of transport peptides)” value rises from 0.03 µM to 0.1 µM (3.3-fold).

Compared with “Biotin-QTRRRERRAEKQAQW-NH2 [Bacteriophage lambda N peptide]”, “Biotin-RAGLQFPVGRVHRLLRK-NH2 [Antibacterial peptide Buforin, reference compound]” is 3-fold higher in “Concentration (translocation activity of transport peptides)” value: 1.0 µM for the first, 3.0 µM for the second.

Compared with “Biotin-RPRGTRGKGRRIRR-NH2 [HIV-1 tat/tar]”, Biotin-RRRERRAEK-NH2 is 3.3-fold higher in “Concentration (translocation activity of transport peptides)” value: 0.3 µM for the first, 1.0 µM for the second.

With “Biotin-TRRSKRRSHRKF-NH2 [Herpes virus 8 k8 protein (res 124-135)]” the “Concentration (translocation activity of transport peptides)” value was 0.1 µM.

First: Biotin-RQLRIAGRRLRGRSR-NH2 [MDM-28]
Second: Biotin-RRVTSWLGRQLRIAGKRLEGRSK-NH2 [MDL-8]
The “Concentration (translocation activity), optimization of E^rns peptide” value (“Concentration (translocation activity)” for short) of the first is 10-fold lower: 0.1 µM for the first, 1.0 µM for the second.

In the case of “Biotin-RVRSWLGRQLRIAGKRLEGRSK-NH2 [MDL-9]”, the “Concentration (translocation activity)” value is reported as 1.0 µM.

For “MAGAININ (GIGKFLHSAGKFGKAFVGEIMKS; also: biotinylated (site not given here)) [reference compound]”, the “Translocation activity (in words)” value was “did not”.

Same assay, conditions: Table 9; lower concentration = higher translocation activity

In the case of Rhodamine-GRQLRIAGRRLRGRSR-NH2 [A931], the “Concentration (translocation activity)” value is reported as 3.0 µM.

Same assay, conditions: Table 11

“Bioton-KRIPNKKPGKKTTTKPTKKPTIKTTKK-NH2 [MDP-04]” was tested, and the “Concentration (translocation activity of transport peptides)” value was 0.3 µM.
